Data reported in patent US20230338554A1, “GALACTOSYLATED DENDRIMERS FOR TARGETED INTRACELLULAR DELIVERY TO HEPATOCYTES” (The Johns Hopkins University, priority 2020, published 2023).

Columns and labels:
ASGPR = molecular target: T1, ASGPR (Homo sapiens, UniProt P07306); conditions: cited from earlier work
T1 sequence (P07306 1-291): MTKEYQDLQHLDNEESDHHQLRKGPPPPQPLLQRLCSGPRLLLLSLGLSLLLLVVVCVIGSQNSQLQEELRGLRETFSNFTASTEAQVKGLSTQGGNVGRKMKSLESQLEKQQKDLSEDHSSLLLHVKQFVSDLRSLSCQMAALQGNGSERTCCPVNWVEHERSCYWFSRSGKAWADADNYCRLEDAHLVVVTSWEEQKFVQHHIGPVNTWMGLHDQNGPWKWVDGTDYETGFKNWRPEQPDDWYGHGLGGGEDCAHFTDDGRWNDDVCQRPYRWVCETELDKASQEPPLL

[1] = system: severe acetaminophen poisoning; test: Gal-D4-NAC treatment in mouse model of severe acetaminophen poisoning; format: in vivo, C57BL6 mice
Method: A model of severe acetaminophen poisoning was established through the administration of 700 mg/kg APAP i.p. to C57BL6 mice (FIG. 12A). There was a high mortality rate, with >90% of mice given APAP overdose dying with 72 hours regardless of treatment with free NAC (FIG. 12B). FIG. 12B represents the survival of healthy sham (black) and saline (red), free NAC (green), and Gal-D4-NAC (blue) treated animals as determined by mass reduction below 80% of the initial animal mass. This model replicates the effects of APAP overdose that result in fulminant liver failure and are considered untreatable with the current clinical NAC regiment. Additionally, to mimic delayed treatment due to late arrival at the hospital, animals eight hours after APAP overdose were also treated as opposed to the pre- and co-treatments with nanoparticles that are typically reported in this model. Both dendrimer and free drug treated animals received 100 mg/kg of NAC, which is […] of the dose that would be administered over 24 hours by i.v. infusion in the clinic.
Next liver necrosis and function were assessed through analysis of images from liver sections isolated at time of death and stained for hematoxylin and eosin. […] After receiving an overdose of APAP, liver structure is essentially destroyed. […]

| SMILES | monovalent binding affinity to ASGPR (ASGPR) | mice dying ([1]; 700 mg/kg APAP i.p., 72 hours) [%] | liver architecture / liver health ([1]; single i.v. dose 100 mg/kg on a NAC basis) |
| --- | --- | --- | --- |
| CC(=O)N[C@H]1C(O)O[C@H](CO)[C@H](O)[C@@H]1O (stereo partly drawn) [N-acetylgalactosamine (GalNAc), N-acetylgalactosamine] | micromolar scale |  |  |
| CC(=O)N[C@@H](CS)C(=O)O [free NAC, N-acetyl cysteine] |  | > 90 | unable to have any effect on liver health |
